The values below are quoted from earlier work in patent publication US11369672B2 (priority 2012, dated 2022).

Converted amounts (≈) assume the structure as drawn.

The test system of this series is Mtb H37Rv.

For the molecule `CO[C@H]1/C=C/O[C@@]2(C)Oc3c(C)c(O)c4c(O)c(c(/C=N/N5CCN(C)CC5)c(O)c4c3C2=O)NC(=O)/C(C)=C\C=C\[C@H](C)[C@H](O)[C@@H](C)[C@@H](O)[C@@H](C)[C@H](OC(C)=O)[C@@H]1C` [RIF, rifampin], the minimum inhibitory concentration was 0.25 µM (≈ 0.206 µg/mL).
